Experimental data taken from US20200115698A1, “PHARMACEUTICAL COMBINATION FOR TREATMENT OF FABRY DISEASE AND USE THEREOF” (MEIJI PHARMACEUTICAL UNIVERSITY, priority 2017, published 2020).

What was measured:
α-NAGA mutant = target: T1, α-NAGA mutant (Homo sapiens, UniProt P17050, A191L/S188E); assay: Heat stability test carried out by measuring enzyme activity; format: biochemical; conditions: 1 or 10 μM DGJ, FIG. 3
T1 sequence (P17050 with tags, fused parts or gaps S188E/A191L): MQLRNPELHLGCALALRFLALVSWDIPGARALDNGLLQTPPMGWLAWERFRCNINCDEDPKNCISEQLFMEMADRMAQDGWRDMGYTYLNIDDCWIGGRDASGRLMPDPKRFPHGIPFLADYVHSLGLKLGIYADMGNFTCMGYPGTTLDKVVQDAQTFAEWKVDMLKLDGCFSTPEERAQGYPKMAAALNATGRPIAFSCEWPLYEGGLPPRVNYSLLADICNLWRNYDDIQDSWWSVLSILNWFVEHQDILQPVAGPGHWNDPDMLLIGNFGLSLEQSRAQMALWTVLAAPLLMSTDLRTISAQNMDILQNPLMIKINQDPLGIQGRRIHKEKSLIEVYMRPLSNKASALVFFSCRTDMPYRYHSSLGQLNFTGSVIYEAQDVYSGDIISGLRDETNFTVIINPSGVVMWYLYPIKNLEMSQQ
Description: 1 μM or 10 μM of DGJ was added to 10 μg/ml of an α-NAGA mutant solution which had been prepared by dissolving an α-NAGA mutant in a 10 mM sodium phosphate buffer (pH 7.5) or a 25 mM sodium acetate buffer (pH 5.2) (the total amount was 100 μl). Then, incubation was carried out at 42° C. for the solution using the 10 mM sodium phosphate buffer (pH 7.5) and at 55° C. for the solution using the 25 mM sodium acetate buffer (pH 5.2). Then, the incubated solution was sampled by 10 μl at points in time which were respectively 0 and 60 minutes after the start of the incubation. Each of the samples thus obtained was immediately added to 40 μl of a 0.1 M phosphate-citrate buffer (pH 4.6) in which a 5 mM substrate was dissolved, and enzyme activity was measured. Remaining activity is indicated based on an assumption that an enzyme activity value after 0 minutes is 100%. FIG. 3 is a view showing a result of heat stability test for confirming inhibitory activity of DGJ with respect to an α-NAGA mutant.

[1] = test system: cultivated fibroblast derived from a Fabry disease model mouse; assay: Simultaneous addition of α-NAGA mutant and DGJ to cultivated fibroblast derived from Fabry disease model mouse; format: cell-based; conditions: 1 μg/mL α-NAGA mutant plus 0-500 μM DGJ, 24 hours; FIG. 5
Description: A cultivated fibroblast derived from a Fabry disease model mouse was cultured at 37° C. under a 5% carbon dioxide environment with use of a DMEM medium to which a 10% fetal calf serum and an antibiotic substance had been added. First, concentration dependence of DGJ with respect to uptake efficiency of an α-NAGA mutant was analyzed. The cells were seeded to a 12-well plate at 1.0×10^5 cells/well. The medium was exchanged with an F-10 medium that contained 1 μg/mL of an α-NAGA mutant, any of concentrations (0, 1, 10, 100, and 500 μM) of DGJ, a 10% fetal calf serum, and an antibiotic substance, and cultivation was carried out for 24 hours. […] The homogenate thus obtained was subjected to centrifugal separation under conditions of 4° C. and 12,000 rpm, and the obtained supernatant liquid was used as samples for enzyme activity measurement, protein quantification, and Western blotting. […] Then, released 4-methylumbelliferone was measured at an excitation wavelength of 355 nm and at a fluorescence wavelength of 460 nm with use of Wallac 1420 ARVO MX Multilabel Counter (Perkin Elmer, Waltham, Mass.). Protein quantification was carried out with Micro BCA method (Micro BCA (trademark) Protein Assay Reagent Kit: Pierce) while using a concentration of bovine serum albumin (Albumin standard: Pierce Biotechnology, Inc., Rockford, Ill.) as a standard. […]

SMILES: OCC1NCC(O)C(O)C1O [DGJ, (2R,3S,4R,5S)-2-(hydroxymethyl)piperdine-3,4,5-triol]
- heat stability of the α-NAGA mutant (remaining activity after 60 minutes) (α-NAGA mutant; acidic condition pH 5.2, 55° C., higher improvement than at neutral pH): heat stability of the α-NAGA mutant was improved
- heat stability of the α-NAGA mutant (remaining activity after 60 minutes) (α-NAGA mutant; neutral condition pH 7.5, 42° C.): heat stability of the α-NAGA mutant was improved
- α-NAGA mutant enzyme activity in cells [1]: enzyme activity was improved
